Molecular target: T1, zebrafish TRPA1b (zTRPA1b) (Danio rerio, UniProt A0A8M1N2Z4)
T1 sequence (A0A8M1N2Z4 1-1120): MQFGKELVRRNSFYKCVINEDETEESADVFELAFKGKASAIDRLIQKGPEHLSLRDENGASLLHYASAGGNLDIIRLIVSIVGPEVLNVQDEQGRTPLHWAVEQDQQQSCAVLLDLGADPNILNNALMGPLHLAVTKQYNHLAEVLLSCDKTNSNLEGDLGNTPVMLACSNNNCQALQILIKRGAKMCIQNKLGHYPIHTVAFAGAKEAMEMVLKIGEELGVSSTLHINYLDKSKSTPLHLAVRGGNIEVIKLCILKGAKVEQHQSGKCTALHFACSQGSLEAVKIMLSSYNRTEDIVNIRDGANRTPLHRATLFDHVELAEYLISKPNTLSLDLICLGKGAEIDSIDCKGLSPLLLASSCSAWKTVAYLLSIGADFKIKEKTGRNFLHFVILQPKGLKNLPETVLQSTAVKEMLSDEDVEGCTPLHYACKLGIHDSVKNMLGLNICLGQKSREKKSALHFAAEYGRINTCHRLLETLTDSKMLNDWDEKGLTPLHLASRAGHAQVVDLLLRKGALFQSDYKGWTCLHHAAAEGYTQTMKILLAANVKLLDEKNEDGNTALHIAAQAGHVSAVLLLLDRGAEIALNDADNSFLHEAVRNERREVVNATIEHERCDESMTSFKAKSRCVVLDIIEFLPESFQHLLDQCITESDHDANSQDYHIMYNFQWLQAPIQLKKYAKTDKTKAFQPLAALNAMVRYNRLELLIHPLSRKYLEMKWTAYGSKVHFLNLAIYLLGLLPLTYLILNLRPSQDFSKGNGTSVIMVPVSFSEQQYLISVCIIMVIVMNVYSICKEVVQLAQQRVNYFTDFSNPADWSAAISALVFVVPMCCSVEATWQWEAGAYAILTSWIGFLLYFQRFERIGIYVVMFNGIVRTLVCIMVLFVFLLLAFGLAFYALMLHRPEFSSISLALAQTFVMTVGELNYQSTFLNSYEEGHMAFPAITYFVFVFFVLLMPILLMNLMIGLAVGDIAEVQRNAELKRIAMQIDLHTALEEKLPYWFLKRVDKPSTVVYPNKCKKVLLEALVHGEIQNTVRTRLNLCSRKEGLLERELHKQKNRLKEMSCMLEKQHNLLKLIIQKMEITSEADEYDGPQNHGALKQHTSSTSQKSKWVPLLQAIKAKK
Assay: FLIPR calcium signaling assay in zTRPA1b-transfected HEK293 cells
Type: cell-based
Details: for EC50: agonist calcium influx, zTRPA1b-transfected HEK293, read-out: EC50 (potency in µM)
Procedure: The cells were maintained in a 37 °C incubator with consistent 5% CO2. […] Experiments were carried out with the approval of the Institutional Biohazard Committee (#13-013-16).
Twenty-five µl calcium sensitive Fluorescent Imaging Plate Reader (FLIPR) Calcium 6 assay dye (#R8190, Molecular Devices, CA, USA) was added to each well of a 384-well plate containing HEK293 cells transiently expressing mTRPA1, zTRPA1a, and zTRPA1b, respectively. The cells were incubated for an hour prior to the recording of intracellular calcium levels in a FlexStation3 Multi-Mode Microplate Reader (#R8190, Molecular Devices) as previously described. […] During the assay, the cells were challenged by a 5x ASP7663 solution or 1% DMSO solution at the 20 seconds time point, and both solutions were diluted in calcium buffer. Relative fluorescence units (RFU) were measured for 120 seconds period by the Flexstation. […] For each specific antagonist concentration we plotted Log(dose ratio-1) against the antagonist concentration in a Schild plot. The dose ratio (A’/A) equals the EC50 of the agonist (ASP7665) in the presence of a concentration of the antagonist (A’) divided by the EC50 of the agonist in the absence of antagonist (A). The x-intercept of the Schild plot was used to identify the antagonist-receptor affinity (pA2).
All data are presented as means ± standard error of the mean (SEM). For our in vitro statistical analysis, AUC of calcium influx (RFU) was measured to plot dose-response curves, which were further analyzed by nonlinear regression analysis. Mean RFU of the first 10 seconds was used as a baseline of the AUC. EC50 values of the dose-response curves were further used to plot Schild curves, and the curves were analyzed with linear regression analysis. For the mice von Frey test, mechanical thresholds were analyzed with two-way ANOVA followed by a Bonferonni test for multiple comparison analysis. For the zebrafish behavior test, the data from the first five seconds following drug administration were excluded, as zebrafish displacement during that period was highly influenced by liquid dispensing. AUC of all curves were measured and analyzed by one-way ANOVA. The post-hoc analysis was conducted with the Tukey’s or Dunnett’s multiple comparisons unless it stated otherwise. […] For our time-course average displacement graph, we used 2nd degree polynomial smoothing for a better representation; however, we used data before smoothing for all statistical analysis and quantification. All in vitro and in vivo data were evaluated using GraphPad Prism 7 (GraphPad Software, La Jolla, CA) unless it stated otherwise.

| Structure (SMILES) | EC50 [µM] | calcium influx by antagonist alone (316 µM, zTRPA1b-transfected cells) | pA2 expressed in µM (Schild plot against ASP7663-mediated calcium influx, zTRPA1b) [µM] | pA2 (Schild plot against ASP7663-mediated calcium influx, zTRPA1b, only two antagonist doses) | Schild slope (zTRPA1b, n = 2) |
| --- | --- | --- | --- | --- | --- |
| CC(C)CN1C(=O)/C(=C/C(=O)O)c2cccc(F)c21 [ASP7663] | 99 |  |  |  |  |
| CC(C)c1ccc(NC(=O)Cn2cnc3c2c(=O)n(C)c(=O)n3C)cc1 [HC-030031] |  | could produce an influx of intracellular calcium | 27.1 | 4.6 ± 0.3 | 0.83 ± 0.05 |
| C=CCN=C=S [AITC, allyl isothiocyanate] | 35.4 |  |  |  |  |

Reference: publication PMC6382835, “A critical evaluation of TRPA1-mediated locomotor behavior in zebrafish as a screening tool for novel anti-nociceptive drug discovery” (Scientific Reports, 2019)
